Measurements published in paper PMC7866225, “Microwave-Assisted Synthesis of (Piperidin-1-yl)quinolin-3-yl)methylene)hydrazinecarbothioamides as Potent Inhibitors of Cholinesterases: A Biochemical and In Silico Approach” (Molecules, 2021).
Several values for one entry are separate records, joined by “and”; a condition that tells them apart may be missing. Equal entries are not always repeated.

What was measured:
[1] = test system: HepG2 cells; assay: In vitro cytotoxicity, MTT assay; format: cell-based; conditions: HepG2, MTT, 0–1000 µg/mL, 24 h
Procedure: (§1) HepG2 cell line was obtained from the cell culture laboratory established in The University of Lahore. These cell lines were preserved in cryo vials present in liquid nitrogen. Cryo vials were revived for further processing.
(§2) The cryo vials obtained from liquid nitrogen cylinder were thawed. Then HepG2 cells were cultured in the culturing flask in which DMEM-HG along with 10% fetal bovine serum (FBS), supplemented with […] (Sigma) and 100 U/mL streptomycin (Sigma) were added. Cultures were maintained in a humidified incubator supplied with 5% CO2 at 37 °C. Experiments were performed in triplicates. When cultured HepG2 cells achieved 70–80% confluence their subculturing was conducted. For splitting, the cells attached to the walls of the culturing flask were washed with 1× phosphate buffer saline (PBS) and incubated with 0.05% trypsin-EDTA until cells detached from the surface of culturing flask. The detachment of the cells was confirmed by observing the flask under the inverted microscope. A few drops of FBS were added to the flask and mixed well by stirring. The mixture was centrifuged at 2000 rpm for 5 min. After centrifugation the supernatant was removed, and pellet was resuspended. HepG2 cells were cultured onto 96-well plates for measurement of cell viability. Treatment was given for both compounds at a concentration of 0–1000 µg/mL for 24 h.
(§3) After 4 h formazan crystals were solubilized with 10% sodium dodecylsulphate (SDS) (Invitrogen Inc.) and absorbance was taken at 570 nm. Percentage viability was calculated according to the following formula:% Viable cells = ((abs sample − abs blank) / (abs control − abs blank)) × 100 (1) where abs stands for absorbance.

[2] = In vitro cytotoxicity, MTT assay; format: cell-based; conditions: human, HepG2 cells, 24 h, control = 100, read-out: Cell Viability; for viability at 24 h, 50 μg/mL: HepG2, 50 μg/mL; for viability at 24 h, 100 μg/mL: HepG2, 100 μg/mL; for viability at 24 h, 200 μg/mL: HepG2, 200 μg/mL; for viability at 24 h, 500 μg/mL: HepG2, 500 μg/mL; for viability at 24 h, 1000 μg/mL: HepG2, 1000 μg/mL
Procedure: as §1, §2, §3

[3] = molecular target: Acetylcholinesterase (AChE) (Electrophorus electricus, UniProt O42275); assay: biochemical; conditions: Ellman's method, triplicate; read-out: Acetylcholinesterase (AChE) IC50 ± SEM
Acetylcholinesterase (AChE), sequence (O42275 24-633): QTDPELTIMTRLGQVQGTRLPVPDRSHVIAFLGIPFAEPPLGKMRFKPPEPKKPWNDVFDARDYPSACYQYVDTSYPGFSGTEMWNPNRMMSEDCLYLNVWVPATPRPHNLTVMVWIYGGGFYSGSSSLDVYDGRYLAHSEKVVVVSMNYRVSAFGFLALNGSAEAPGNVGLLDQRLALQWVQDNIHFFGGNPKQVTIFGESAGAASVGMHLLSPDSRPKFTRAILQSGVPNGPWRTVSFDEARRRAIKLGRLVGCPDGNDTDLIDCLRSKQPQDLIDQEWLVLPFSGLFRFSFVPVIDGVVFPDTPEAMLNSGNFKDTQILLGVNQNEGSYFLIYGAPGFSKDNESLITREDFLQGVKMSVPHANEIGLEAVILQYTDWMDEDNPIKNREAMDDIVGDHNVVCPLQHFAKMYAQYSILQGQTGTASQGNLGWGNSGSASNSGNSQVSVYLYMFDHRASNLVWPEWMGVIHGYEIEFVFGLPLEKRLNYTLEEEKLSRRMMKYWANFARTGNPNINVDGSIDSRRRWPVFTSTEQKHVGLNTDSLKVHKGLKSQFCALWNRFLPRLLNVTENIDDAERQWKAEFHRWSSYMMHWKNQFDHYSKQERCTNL
Procedure: (§4) Modified Ellman’s method was adopted to investigate the inhibitory potential of newly synthesized compounds against cholinesterase enzymes. The assay protocol involved 96-well plates (100 μL per well). Each well contained 20 μL of assay buffer solution, 10 μL of test sample, and 10 μL of 0.5 U/mg of AChE (for AChE inhibition assay) or 10 μL of 3.4 U/mg of BChE (for BChE inhibition assay). This mixture was incubated at 25 °C for 10 min followed by the addition of substrate (10 μL). For AChE inhibition assay, acetylthiocholine iodide (ATCI, 1 mM) while for BChE assay, butyrylthiocholine chloride (BTCCl, 1 mM), was added. This mixture was incubated for 15 min at 37 °C. Ellman reagent (5,5′-dithio-bis(2-nitrobenzoic acid), DTNB, 3 mM) was added. […] Blank assay was also performed. All the analyses were performed in triplicate. IC50 values were also calculated for the synthesized compounds in GraphPad prism 5.0. using nonlinear regression method.

[4] = molecular target: Butyrylcholinesterase (BChE) (Equus caballus, UniProt P81908); assay: biochemical; conditions: Ellman's method, triplicate; read-out: Butyrylcholinesterse (BChE) IC50 ± SEM
Butyrylcholinesterase (BChE), sequence (P81908 whole entry): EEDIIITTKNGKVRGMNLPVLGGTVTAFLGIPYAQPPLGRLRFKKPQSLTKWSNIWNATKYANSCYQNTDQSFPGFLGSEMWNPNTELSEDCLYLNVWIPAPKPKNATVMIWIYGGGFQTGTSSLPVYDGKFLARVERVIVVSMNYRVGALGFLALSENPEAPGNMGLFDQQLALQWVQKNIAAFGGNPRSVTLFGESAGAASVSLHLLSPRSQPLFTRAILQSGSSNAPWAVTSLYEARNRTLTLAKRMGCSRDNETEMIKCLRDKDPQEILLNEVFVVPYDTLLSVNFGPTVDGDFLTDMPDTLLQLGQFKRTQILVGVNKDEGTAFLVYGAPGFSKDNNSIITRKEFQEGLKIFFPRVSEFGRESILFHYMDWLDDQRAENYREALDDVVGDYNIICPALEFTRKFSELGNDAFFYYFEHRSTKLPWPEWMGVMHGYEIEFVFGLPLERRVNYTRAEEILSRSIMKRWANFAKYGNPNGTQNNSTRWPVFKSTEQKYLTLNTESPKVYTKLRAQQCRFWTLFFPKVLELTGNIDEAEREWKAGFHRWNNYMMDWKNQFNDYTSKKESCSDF
Procedure: as §4

| SMILES | Status [1] | viability at 24 h, 50 μg/mL [2] [%] | viability at 24 h, 100 μg/mL [2] [%] | viability at 24 h, 200 μg/mL [2] [%] | viability at 24 h, 500 μg/mL [2] [%] | viability at 24 h, 1000 μg/mL [2] [%] | IC50 [3] | IC50 [4] |
| --- | --- | --- | --- | --- | --- | --- | --- | --- |
| Cc1ccc2nc(N3CCCCC3)c(C=NNC(=S)NCCN3CCOCC3)cc2c1 [Compound 5m, 2-((6-Methyl-2-(piperidin-1-yl)quinolin-3-yl)methylene)-N-(2-morpholinoethyl)hydrazine carbothioamide] | Non-cytotoxic | 94 | 102 | 109 | 107 | 115 | 62.3 ± 0.68 µM | 59.35 ± 0.13 µM |
| Cc1cccc2cc(C=NNC(N)=S)c(N3CCCCC3)nc12 [Compound 6a, 2-((8-Methyl-2-(piperidin-1-yl)quinolin-3-yl)methylene)hydrazinecarbothioamide] | Cytotoxic | 82.5 | 86.3 | 80.6 | 83.3 | 77.9 | 36.25 ± 0.36 µM | 60.02 ± 0.04 µM |
| Cc1cccc2cc(C=NNC(=S)Nc3ccccc3)c(N3CCCCC3)nc12 [Compound 6b, 2-((8-Methyl-2-(piperidin-1-yl)quinolin-3-yl)methylene)-N-phenylhydrazinecarbothioamide] | Cytotoxic | 89.9 | 95.7 | 92.8 | 112 | 69.2 | 25.9 ± 0.45 µM | 28.8 ± 0.63 µM |
| Cc1ccc(NC(=S)NN=Cc2cc3cccc(C)c3nc2N2CCCCC2)c(C)c1 [Compound 6c, N-(2,4-Dimethylphenyl)-2-((8-methyl-2-(piperidin-1-yl)quinolin-3-yl)methylene)hydrazine carbothioamide] | Proliferative | 87.5 | 116 | 154 | 187 | 233 | 39.12 ± 0.27 µM | 24.59 ± 0.09 µM |
| Cc1cccc(C)c1NC(=S)NN=Cc1cc2cccc(C)c2nc1N1CCCCC1 [Compound 6d, N-(2,6-Dimethylphenyl)-2-((8-methyl-2-(piperidin-1-yl)quinolin-3-yl)methylene)hydrazine carbothioamide] | Proliferative | 75 | 93.9 | 91.3 | 129 | 173 | < 20 µM and 12.9 µM | < 20 µM and 17.9 µM |
| Cc1cccc2cc(C=NNC(=S)Nc3ccccc3Cl)c(N3CCCCC3)nc12 [Compound 6e, N-(2-Chlorophenyl)-2-((8-methyl-2-(piperidin-1-yl)quinolin-3-yl)methylene)hydrazine carbothioamide] | Proliferative | 102 | 112 | 167 | 180 | 212 | 32.11 ± 0.15 µM | 37.1 ± 0.59 µM |
| Cc1cccc2cc(C=NNC(=S)Nc3cccc(Cl)c3)c(N3CCCCC3)nc12 [Compound 6f, N-(3-Chlorophenyl)-2-((8-methyl-2-(piperidin-1-yl)quinolin-3-yl)methylene)hydrazine carbothioamide] | Proliferative | 110 | 110 | 109 | 139 | 189 | < 20 µM and 9.68 µM | < 20 µM and 11.6 µM |
| Cc1cccc2cc(C=NNC(=S)Nc3ccc(Cl)cc3)c(N3CCCCC3)nc12 [Compound 6g, N-(4-Chlorophenyl)-2-((8-methyl-2-(piperidin-1-yl)quinolin-3-yl)methylene)hydrazine carbothioamide] | Proliferative | 113 | 106 | 111 | 150 | 214 | < 20 µM and 13.8 µM | < 20 µM and 18.6 µM |
| Cc1cccc2cc(C=NNC(=S)Nc3ccccc3F)c(N3CCCCC3)nc12 [Compound 6h, N-(2-Fluorophenyl)-2-((8-methyl-2-(piperidin-1-yl)quinolin-3-yl)methylene)hydrazine carbothioamide] | Proliferative | 100 | 110 | 126 | 151 | 202 | 40.23 ± 0.25 µM | 45.12 ± 0.19 µM |
| Cc1cccc2cc(C=NNC(=S)Nc3cccc(F)c3)c(N3CCCCC3)nc12 [Compound 6i, N-(3-Fluorophenyl)-2-((8-methyl-2-(piperidin-1-yl)quinolin-3-yl)methylene)hydrazine carbothioamide] | Proliferative | 95.5 | 102 | 131 | 112 | 186 | 15.8 ± 1.3 µM | 51.11 ± 0.28 µM |
| Cc1cccc2cc(C=NNC(=S)Nc3ccc(F)cc3)c(N3CCCCC3)nc12 [Compound 6j, N-(4-Fluorophenyl)-2-((8-methyl-2-(piperidin-1-yl)quinolin-3-yl)methylene)hydrazine carbothioamide] | Non-cytotoxic | 103 | 93.7 | 94.8 | 108 | 114 | 56.66 ± 0.41 µM | 51 ± 0.52 µM |
| CCc1ccc(NC(=S)NN=Cc2cc3cccc(C)c3nc2N2CCCCC2)cc1 [Compound 6k, N-(4-Ethylphenyl)-2-((8-methyl-2-(piperidin-1-yl)quinolin-3-yl)methylene)hydrazine carbothioamide] | Proliferative | 103 | 105 | 107 | 138 | 157 | 39.9 ± 0.85 µM | 32.01 ± 0.31 µM |
| Cc1cccc2cc(C=NNC(=S)NCc3ccccc3)c(N3CCCCC3)nc12 [Compound 6l, N-Benzyl-2-((8-methyl-2-(piperidin-1-yl)quinolin-3-yl)methylene)hydrazinecarbothioamide] | Proliferative | 103 | 105 | 107 | 138 | 157 | 57.25 ± 0.03 µM | 41 ± 0.89 µM |
